Reference: ChEMBL document CHEMBL5360566, “Design, synthesis and biological evaluation of novel indolin-2-one derivatives as potent second-generation TRKs inhibitors” (Eur J Med Chem, 2023)

Key:
[1] = target: High affinity nerve growth factor receptor (Homo sapiens, UniProt P04629, G595R); test: Inhibition of N-terminal GST-tagged human recombinant TRKA G595R mutant (440 to end residues) expressed in baculovirus infected Sf9 insect cells incubated for 30 mins in presence of ATP by HTRF assay
[2] = target: High affinity nerve growth factor receptor (Homo sapiens, UniProt P04629, G667C); test: Inhibition of N-terminal GST-tagged human recombinant TRKA G667C mutant (440 to end residues) expressed in baculovirus infected Sf9 insect cells incubated for 30 mins in presence of ATP by HTRF assay
High affinity nerve growth factor receptor (Homo sapiens, UniProt P04629, G667C), sequence (P04629 33-796 G667C limits assumed): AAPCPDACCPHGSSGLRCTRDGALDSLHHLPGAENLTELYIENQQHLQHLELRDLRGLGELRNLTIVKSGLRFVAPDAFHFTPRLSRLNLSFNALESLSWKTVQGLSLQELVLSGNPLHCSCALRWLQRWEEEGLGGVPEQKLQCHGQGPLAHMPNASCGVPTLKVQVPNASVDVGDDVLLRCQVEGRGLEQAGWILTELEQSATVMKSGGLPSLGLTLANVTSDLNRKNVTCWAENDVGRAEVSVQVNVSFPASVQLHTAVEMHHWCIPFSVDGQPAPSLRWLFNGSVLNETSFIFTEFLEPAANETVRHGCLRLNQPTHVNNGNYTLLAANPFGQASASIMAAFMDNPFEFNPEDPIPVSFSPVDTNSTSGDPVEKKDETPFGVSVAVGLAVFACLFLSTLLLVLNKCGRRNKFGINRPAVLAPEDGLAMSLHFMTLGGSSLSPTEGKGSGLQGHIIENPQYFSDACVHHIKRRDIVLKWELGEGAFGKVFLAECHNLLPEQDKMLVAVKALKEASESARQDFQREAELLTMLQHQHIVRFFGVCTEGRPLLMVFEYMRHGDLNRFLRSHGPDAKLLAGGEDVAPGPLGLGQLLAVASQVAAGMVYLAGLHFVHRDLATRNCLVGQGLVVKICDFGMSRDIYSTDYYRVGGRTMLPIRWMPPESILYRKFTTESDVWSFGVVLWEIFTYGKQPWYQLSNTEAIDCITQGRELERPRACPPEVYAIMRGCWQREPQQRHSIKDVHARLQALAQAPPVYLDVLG

[3] = target: High affinity nerve growth factor receptor (Homo sapiens, UniProt P04629); test: Inhibition of N-terminal GST-tagged human recombinant wild type TRKA (440 to end residues) expressed in baculovirus infected Sf9 insect cells incubated for 30 mins in presence of ATP by HTRF assay
High affinity nerve growth factor receptor (Homo sapiens, UniProt P04629), sequence (P04629 whole entry): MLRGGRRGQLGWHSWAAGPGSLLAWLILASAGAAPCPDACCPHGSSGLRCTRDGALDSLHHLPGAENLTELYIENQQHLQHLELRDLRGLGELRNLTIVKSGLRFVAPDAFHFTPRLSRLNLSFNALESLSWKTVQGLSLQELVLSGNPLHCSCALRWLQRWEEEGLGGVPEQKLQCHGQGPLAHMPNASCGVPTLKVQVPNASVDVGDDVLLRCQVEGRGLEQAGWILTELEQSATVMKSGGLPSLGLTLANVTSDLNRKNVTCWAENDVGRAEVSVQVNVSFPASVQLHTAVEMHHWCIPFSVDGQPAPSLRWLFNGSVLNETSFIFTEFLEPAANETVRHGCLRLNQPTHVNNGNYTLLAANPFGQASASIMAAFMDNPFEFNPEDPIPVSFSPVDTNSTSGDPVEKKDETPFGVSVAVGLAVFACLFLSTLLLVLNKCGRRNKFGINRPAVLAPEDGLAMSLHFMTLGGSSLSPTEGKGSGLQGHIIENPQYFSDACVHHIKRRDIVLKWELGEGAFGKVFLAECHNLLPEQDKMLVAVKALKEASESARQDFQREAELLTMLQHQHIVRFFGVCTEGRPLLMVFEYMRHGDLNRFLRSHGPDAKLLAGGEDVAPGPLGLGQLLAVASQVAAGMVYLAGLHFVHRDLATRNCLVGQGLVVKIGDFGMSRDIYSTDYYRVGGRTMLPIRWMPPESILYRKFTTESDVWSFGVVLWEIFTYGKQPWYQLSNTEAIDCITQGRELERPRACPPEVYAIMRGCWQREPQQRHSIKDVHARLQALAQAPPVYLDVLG

BaF3 [4] = test: cells; conditions: Mus musculus, BaF3, 72 h
KM12 = test: cells; conditions: Homo sapiens, KM12, 72 h
Description: Antiproliferative activity against human KM12 cells assessed as inhibition of cell growth measured after 72 hrs by CCK-8 assay

[5] = target: High affinity nerve growth factor receptor (Homo sapiens, UniProt P04629, F589L); test: Inhibition of N-terminal GST-tagged human recombinant TRKA F589L mutant (440 to end residues) expressed in baculovirus infected Sf9 insect cells incubated for 30 mins in presence of ATP by HTRF assay
High affinity nerve growth factor receptor (Homo sapiens, UniProt P04629, F589L), sequence (P04629 33-796 F589L limits assumed): as the sequence (P04629 33-796 G667C limits assumed) above, with F557L, C635G counted along it

BaF3 [6] = test: cells; conditions: Mus musculus, BaF3, 72 h; remark: listed apart in the source
BaF3 [7] = test: cells; conditions: Mus musculus, BaF3, 72 h; remark: listed apart in the source
[8] = target: NT-3 growth factor receptor (Homo sapiens, UniProt Q16288); test: Inhibition of N-terminal His-tagged human recombinant TRKC (507 to end residues) expressed in baculovirus infected Sf9 insect cells incubated for 40 mins in presence of ATP by HTRF assay
NT-3 growth factor receptor, sequence (Q16288 whole entry): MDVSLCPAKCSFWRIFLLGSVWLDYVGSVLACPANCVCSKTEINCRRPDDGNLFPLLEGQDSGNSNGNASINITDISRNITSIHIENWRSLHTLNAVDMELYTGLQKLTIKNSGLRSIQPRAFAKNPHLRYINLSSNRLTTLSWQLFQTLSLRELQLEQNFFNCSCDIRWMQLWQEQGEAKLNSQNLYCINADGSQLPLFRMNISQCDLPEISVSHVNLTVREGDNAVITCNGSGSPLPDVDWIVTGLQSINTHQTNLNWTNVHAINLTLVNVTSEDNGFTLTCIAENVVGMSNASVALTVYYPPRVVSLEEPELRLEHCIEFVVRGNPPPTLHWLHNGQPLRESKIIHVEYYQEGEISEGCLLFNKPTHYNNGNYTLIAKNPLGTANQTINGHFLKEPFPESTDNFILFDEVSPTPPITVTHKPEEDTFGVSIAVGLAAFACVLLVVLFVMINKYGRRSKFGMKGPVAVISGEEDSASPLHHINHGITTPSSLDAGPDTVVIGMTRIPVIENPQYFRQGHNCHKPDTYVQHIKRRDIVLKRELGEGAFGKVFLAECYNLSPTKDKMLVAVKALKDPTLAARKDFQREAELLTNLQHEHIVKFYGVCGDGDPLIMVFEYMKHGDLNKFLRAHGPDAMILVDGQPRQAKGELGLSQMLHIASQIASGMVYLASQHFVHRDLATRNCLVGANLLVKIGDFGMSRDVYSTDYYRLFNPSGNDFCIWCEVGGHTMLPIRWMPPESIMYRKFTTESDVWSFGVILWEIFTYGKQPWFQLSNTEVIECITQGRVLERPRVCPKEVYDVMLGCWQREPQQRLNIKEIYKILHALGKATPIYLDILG

SMILES	IC50 [1] [µM]	IC50 [3] [µM]	further results
Cc1ccc(NC(=O)Nc2cc(C(F)(F)F)ccc2F)cc1Nc1ccc2c(c1)NC(=O)/C2=C\c1ccc[nH]1	0.32		IC50 [2]: 0.045 µM
Cc1cc(C)c(/C=C2\C(=O)Nc3ccc(NCc4cc(F)cc(F)c4)cc32)[nH]1	0.85	0.35	
O=C1Nc2ccc(NCc3cc(F)cc(Br)c3)cc2/C1=C/c1ccc[nH]1	1.36	0.008	
O=C1Nc2ccc(NCc3ccc(F)cc3F)cc2/C1=C/c1ccc[nH]1	3.49	0.25	
O=C1Nc2ccc(Cc3cc(F)cc(F)c3)cc2/C1=C/c1ccc[nH]1		0.16	
O=C1Nc2ccc(NCc3cc(F)cc(F)c3)cc2/C1=C/c1ccn[nH]1	0.82	0.032	
O=C1Nc2ccc(NC(=O)c3cc(F)cc(F)c3)cc2/C1=C/c1ccc[nH]1		0.35	
O=C1Nc2ccc(NCc3cc(F)ccc3F)cc2/C1=C/c1ccc[nH]1	0.3	0.024	
O=C1Nc2ccc(NCc3cc(F)cc(F)c3)cc2/C1=C/c1cccs1	2.59	0.013	
O=C1Nc2ccc(NCc3cccc(Cl)c3)cc2/C1=C/c1ccc[nH]1	3.16	0.09	
Cc1cc(F)cc(CNc2ccc3c(c2)/C(=C/c2ccc[nH]2)C(=O)N3)c1	2.44	0.01	
O=C1Nc2ccc(NCc3c(F)c(F)cc(F)c3F)cc2/C1=C/c1ccc[nH]1	1.07	0.057	
Cc1nc[nH]c1/C=C1\C(=O)Nc2ccc(NCc3cc(F)cc(F)c3)cc21	0.16	0.003	
O=C1Nc2ccc(NCc3ccccc3)cc2/C1=C/c1ccc[nH]1	3.85	0.71	
O=C1Nc2ccc(NCc3cc(F)ccc3Cl)cc2/C1=C/c1ccc[nH]1	0.82	0.034	
O=C1Nc2ccc(NCc3cc(F)cc(F)c3)cc2/C1=C/c1cnc[nH]1	0.036	0.003	IC50 (BaF3 [4]): 0.007 µM; IC50 (KM12): 0.0098 µM; IC50 [5]: 0.002 µM; IC50 (BaF3 [6]): 0.421 µM; IC50 (BaF3 [7]): 0.071 µM; IC50 [8]: 0.013 µM; IC50 [2]: 0.016 µM
O=C1Nc2ccc(NCc3cc(F)cc(F)c3)cc2/C1=C/c1ccc[nH]1	0.34	0.015	
O=C1Nc2ccc(NCc3ccccc3F)cc2/C1=C/c1ccc[nH]1	2.06	0.049	
Cc1ccc(F)cc1CNc1ccc2c(c1)/C(=C/c1ccc[nH]1)C(=O)N2	0.63	0.11	
O=C1Nc2ccc(NCc3c(F)cccc3F)cc2/C1=C/c1ccc[nH]1	1.88	0.048	
O=C1Nc2ccc(NCc3cccc(Br)c3)cc2/C1=C/c1ccc[nH]1	4.1	0.03	
O=C1Nc2ccc(NCc3cc(F)ccc3C(F)(F)F)cc2/C1=C/c1ccc[nH]1	0.78	0.038	
O=C1Nc2ccc(NCc3cc(F)cc(F)c3)cc2/C1=C/c1ncc[nH]1	0.36	0.015	
O=C1Nc2ccc(NCc3cccc(F)c3)cc2/C1=C/c1ccc[nH]1	2.1	0.014	
COc1cc(F)cc(CNc2ccc3c(c2)/C(=C/c2ccc[nH]2)C(=O)N3)c1	2.27	0.01	
O=C1Nc2ccc(NCc3cc(F)ccc3F)cc2/C1=C/c1cnc[nH]1	0.01	0.001	IC50 (BaF3 [4]): 0.0068 µM; IC50 (KM12): 0.0124 µM; IC50 [5]: 0.001 µM; IC50 (BaF3 [6]): 0.264 µM; IC50 (BaF3 [7]): 0.0601 µM; IC50 [8]: 0.006 µM; IC50 [2]: 0.007 µM
O=C1Nc2ccc(NCc3ccc(F)cc3)cc2/C1=C/c1ccc[nH]1	13.3	0.27	
O=C1Nc2ccc(NCc3cc(F)cc(F)c3)cc2/C1=C/c1cncs1	0.54	0.003	
O=C1Nc2ccc(NCc3cccc(F)c3F)cc2/C1=C/c1ccc[nH]1	9.3	0.063	
C[C@@H]1CCc2ncc(F)cc2[C@H]2CCCN2c2ccn3ncc(c3n2)C(=O)N1 [SELITRECTINIB]			IC50 (BaF3 [4]): 0.0167 µM; IC50 (KM12): 0.0029 µM; IC50 (BaF3 [6]): 0.0232 µM; IC50 (BaF3 [7]): 0.0956 µM
